“And” between values parts separate entries of the source, which are not always exact repeats. Equal entries are not always repeated. Where two headings read alike, the source gives them in different places.
Columns and labels:
[1] = test system: rat lysyl oxidase; set-up: method as in PMID 19524603; conditions: cited from earlier work
[2] = test system: LOX; set-up: method as in PMID 2571459; conditions: inhibition time not specified; read-out: IC50 LOX in vitro; cited from earlier work
[3] = test system: LOX; set-up: method as in PMID 2888772; conditions: chick embryos; cited from earlier work
[4] = target: T1, Lysyl oxidase (LOX) (Bos taurus, UniProt P33072); test: LOX activity assay (Amplex UltraRed/HRP fluorescence) after preincubation of enzyme with inhibitor; format: biochemical, bovine; conditions: for IC50 / Selectivity factor (LOX IC50 value divided by LSDAO IC50 value): 10-min preincubation; for IC50: 37 °C, read-out: IC50 LOX; for Selectivity factor (LOX IC50 value divided by LSDAO IC50 value): LOX vs LSDAO; for remaining activity at 4 µM: 4 µM inhibitor; for remaining activity at 4 µM / remaining activity at 7 µM / remaining activity at 20 µM / remaining activity at 100 µM / remaining activity at 500 µM / remaining activity at 40 µM: read-out: Average Percent Activity Remaining, LOX; for remaining activity at 7 µM: 7 µM inhibitor; for remaining activity at 20 µM: 20 µM inhibitor; for remaining activity at 100 µM: 100 µM inhibitor; for remaining activity at 500 µM: 500 µM inhibitor; for LOX k2 (range) / KI (inactivation): Kitz-Wilson analysis; for LOX k2 (range): rate constant for irreversible reaction; for KI (inactivation): reversible binding constant, read-out: LOX KI^-1 (range); for remaining activity at 40 µM: 40 µM inhibitor
T1 construct: LOX was isolated from bovine aorta; from tissue; host or cells: bovine aorta
T1 sequence (P33072 170-418): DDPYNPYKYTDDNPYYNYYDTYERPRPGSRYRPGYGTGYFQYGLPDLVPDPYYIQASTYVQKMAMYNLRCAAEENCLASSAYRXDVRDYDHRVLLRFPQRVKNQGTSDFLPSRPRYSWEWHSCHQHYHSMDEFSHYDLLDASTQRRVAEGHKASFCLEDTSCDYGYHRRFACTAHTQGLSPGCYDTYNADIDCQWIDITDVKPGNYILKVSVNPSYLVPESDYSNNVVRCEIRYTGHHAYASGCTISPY
Procedure: LOX was isolated from bovine aorta at 4 °C using slight modifications of previously published procedures. All steps were carried out at in 16 mM phosphate, pH 7.8 (buffer B). After blending the aorta in buffer B containing 400 mM NaCl and 1 mM EDTA to remove soluble contaminants, the enzyme was extracted with buffer B containing 4 M urea and 1 mM EDTA. The crude enzyme extract was filtered, diluted with an equal volume of buffer B to obtain a urea concentration of 2 M, and loaded onto a DEAE column. After washing with buffer B containing 400 mM NaCl, the enzyme was eluted with buffer B containing 400 mM NaCl and 6 M urea. The urea concentration was reduced to 4 M by adding buffer B, and the solution was added to a slurry of ceramic hydroxyapatite in buffer B containing 4 M urea. After stirring, the supernatant was removed by filtration and dialyzed overnight against buffer B. The solution was added to a slurry of ceramic hydroxyapatite in buffer B, washed with small portions of 1 M phosphate and then buffer B, and then eluted with buffer B containing 6 M urea and 500 mM NaCl. After concentration to about 20 mL, the protein was applied to a Sephacryl S-200 gel filtration column preequilibrated with buffer B containing 50 mM NaCl, 1 mM EDTA, and 6 M urea and eluted with the same buffer. Active fractions were concentrated to 1 mL. Total protein concentration for 6 M urea solutions[33] was determined by its absorption at 280 nm using a molar extinction coefficient of 8.39 × 10^4 M^−1 cm ^−1.
(§1) The activity assay is adopted from the method described by Palamakumbura et al.[35]. Enzyme and inhibitor were incubated at 37 °C for the desired inhibition time, diluted into the assay mixture, and analyzed by fluorescence (Agilent Technologies Cary Eclipse Fluorescence Spectrometer, Cary Eclipse Software, 37 °C, λex = 568 and λem = 581 nm). The assay was carried out in boric acid buffer (50 mM, pH 8.2) with 1.2 M urea for LOX or in phosphate buffer (0.1 M, pH = 7.0) for LSDAO. The final reagent concentrations in the assay mixture were 10 mM cadaverine, 10 μM Amplex UltraRed (Life Technologies, Carlsbad, CA), and 1 U/mL horse radish peroxidase (Amresco, Solon, OH).
(§2) The enzyme activity, which is proportional to the rate of increase in fluorescence, was measured for each experiment. Residual activity was calculated by dividing each rate by a maximum rate determined in the absence of inhibitor such that [residual activity] = ([rate with inhibitor] – [baseline rate])/([maximum rate] – [baseline rate]). […] The residual activities from replicate experiments were averaged. For each inhibitor concentration, log([average residual activity]) was plotted against inhibition time. Linear lines of best fit forced through the origin were calculated for each data set using Graphpad Prism 5.0b (La Jolla, CA). For each inhibitor, the slopes of these lines (min^−1) were plotted as –1/slope against 1/[inhibitor concentration] to produce a Kitz–Wilson plot.
(§3) To quantify the selectivity of each inhibitor, we defined a numerical “selectivity factor” as the inhibitor's IC50 value for LOX divided by its IC50 value for LSDAO (Figure 3(C)).

[5] = target: T2, lentil seedling diamine oxidase (LSDAO) (Lens culinaris, UniProt P49252); test: LSDAO activity assay (Amplex UltraRed/HRP fluorescence) after preincubation of enzyme with inhibitor; format: biochemical; conditions: for IC50: 10-min preincubation, 37 °C, read-out: IC50 LSDAO; for LSDAO k2 (range) / KI (inactivation): Kitz-Wilson analysis; for LSDAO k2 (range): rate constant for irreversible reaction; for KI (inactivation): reversible binding constant, read-out: LSDAO KI^-1 (range)
T2 construct: Eight-day-old lentil seedlings (Lens esculenta) were blended and extracted; from tissue; host or cells: eight-day-old lentil seedlings (Lens esculenta)
T2 sequence (P49252 19-667): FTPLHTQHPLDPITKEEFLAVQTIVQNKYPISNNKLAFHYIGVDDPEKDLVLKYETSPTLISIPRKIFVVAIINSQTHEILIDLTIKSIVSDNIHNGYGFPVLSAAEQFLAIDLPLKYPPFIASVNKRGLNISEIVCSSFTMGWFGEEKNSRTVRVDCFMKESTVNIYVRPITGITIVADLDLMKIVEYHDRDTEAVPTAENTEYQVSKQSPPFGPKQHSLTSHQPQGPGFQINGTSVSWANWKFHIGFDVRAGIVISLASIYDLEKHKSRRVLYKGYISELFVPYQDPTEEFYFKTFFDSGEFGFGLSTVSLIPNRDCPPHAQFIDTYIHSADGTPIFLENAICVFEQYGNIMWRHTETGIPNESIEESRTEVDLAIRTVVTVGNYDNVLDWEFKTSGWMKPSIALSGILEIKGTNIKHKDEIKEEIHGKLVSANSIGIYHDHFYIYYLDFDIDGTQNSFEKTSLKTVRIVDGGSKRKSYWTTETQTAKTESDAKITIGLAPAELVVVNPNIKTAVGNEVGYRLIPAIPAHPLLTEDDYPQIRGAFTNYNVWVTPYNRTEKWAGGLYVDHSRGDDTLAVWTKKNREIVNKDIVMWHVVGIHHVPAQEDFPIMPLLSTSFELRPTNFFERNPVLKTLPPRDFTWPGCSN
Procedure: The LSDAO extraction process was carried out at 4 °C according to the method of Floris et al.[30] with slight modifications. Eight-day-old lentil seedlings (Lens esculenta) were blended and extracted with phosphate buffer (5 mM, pH 6.0, buffer A). Ammonium sulfate (230 g/L, 40% saturation) was used to precipitate contaminants, and then additional ammonium sulfate (125 g/L, 60% saturation) was used to precipitate the LSDAO. The crude precipitate was redissolved, dialyzed against buffer A, applied to a DEAE column, and eluted with buffer A. Active fractions were adjusted to pH 6.5, applied to a CM resin column, and eluted with 5 mM phosphate buffer, pH 6.5. Active fractions were concentrated and the buffer was changed to 10 mM phosphate, pH 7.0 before the protein was applied to a Sephacryl S-300 column and eluted with the same buffer. The concentration of the LSDAO dimer was determined from its absorption at 278 nm in 0.1 M phosphate buffer[31] using a molar extinction coefficient of 2.45 × 10^5 M^−1 cm^−1.
as §1, §2, §3
From the slopes and y-intercepts of these lines, the kinetic parameters KI (the reversible binding constant) and k2 (the rate constant for irreversible reaction) (Figure 5(A)) can be calculated.

[6] = 4 min, read-out: Average Percent Activity Remaining, LSDAO
[7] = 10 min, read-out: Average Percent Activity Remaining, LSDAO

| SMILES | IC50 [4] [µM] | Selectivity factor (LOX IC50 value divided by LSDAO IC50 value) [4] | remaining activity at 100 µM ([4]; 4 min) [%] | remaining activity at 500 µM ([4]; 4 min) [%] | remaining activity at 100 µM ([4]; 10 min) [%] | LOX k2 (range) [4] | KI (inactivation) [4] [µM] | IC50 [5] [µM] | remaining activity at 1 µM [5, 6] [%] | remaining activity at 2 µM [5, 6] [%] | remaining activity at 4 µM [5, 6] [%] | remaining activity at 20 µM [5, 6] [%] | remaining activity at 1 µM [5, 7] [%] | remaining activity at 2 µM [5, 7] [%] | remaining activity at 4 µM [5, 7] [%] | remaining activity at 20 µM [5, 7] [%] | LSDAO k2 (range) [5] | KI (inactivation) [5] | also measured |
| --- | --- | --- | --- | --- | --- | --- | --- | --- | --- | --- | --- | --- | --- | --- | --- | --- | --- | --- | --- |
| NNC(N)=O [semicarbazide] |  |  |  |  |  |  |  |  |  |  |  |  |  |  |  |  |  |  | Inhibition of lysyl oxidase in vivo compared to BAPN [1]: nearly as effective as BAPN; IC50 [2]: 30 µM |
| NNC(=O)c1ccncc1 [hydrazide of isonicotinic acid] |  |  |  |  |  |  |  |  |  |  |  |  |  |  |  |  |  |  | Inhibition of LOX in vivo [3]: can partially inhibit LOX |
| CCCCCC(=O)NN [compound 3] | 20 | 10 | 27 | 8 | 3 | 0.40 (0.23–1.4) min^-1 and 0.4 min^-1 and 0.40 min^-1 | 200 | 2 | 90 | 80 | 71 | 33 | 76 | 52 | 33 | 4 | 0.67 (0.37–3.3) min^-1 and 0.7 min^-1 and 0.67 min^-1 | 50 µM and 54 µM | remaining activity at 4 µM ([4]; 4 min): 93%; remaining activity at 7 µM ([4]; 4 min): 78%; remaining activity at 20 µM ([4]; 4 min): 69%; remaining activity at 4 µM ([4]; 10 min): 84%; remaining activity at 7 µM ([4]; 10 min): 75%; remaining activity at 20 µM ([4]; 10 min): 48%; fold lower affinity for LOX than phenylhydrazine ([4]; compared to phenylhydrazine): 3 fold; remaining activity at 8 µM [5, 6]: 54%; remaining activity at 14 µM [5, 6]: 40%; remaining activity at 40 µM [5, 6]: 4%; remaining activity at 500 µM [5, 6]: 0.7%; remaining activity at 8 µM [5, 7]: 13%; remaining activity at 14 µM [5, 7]: 8% |
| CCCCNC(=O)NN [compound 5] | 100 | 25 | 76 | 35 | 52 | > 0.50 min⁻¹ | > 1000 | 4 | 89 | 78 | 69 | 41 | 84 | 71 | 50 | 7 | 0.91 (0.50–5.0) min^-1 and 0.91 min^-1 | 112 µM | remaining activity at 40 µM ([4]; 4 min): 93%; remaining activity at 40 µM ([4]; 10 min): 78%; remaining activity at 500 µM ([4]; 10 min): 6%; remaining activity at 100 µM [5, 6]: 1% |

Reference: paper PMC6009937, “Comparing hydrazine-derived reactive groups as inhibitors of quinone-dependent amine oxidases” (Journal of Enzyme Inhibition and Medicinal Chemistry, 2017)
